{"source": "paper PMC10810651", "about": "“Discovery of novel and potent CDK8 inhibitors for the treatment of acute myeloid leukaemia” (Journal of Enzyme Inhibition and Medicinal Chemistry, 2024)", "key": {"A549": {"system": "A549", "assay": "Antiproliferative CCK-8 assay, A549", "type": "cell-based", "conditions": "Homo sapiens; A549, CCK-8 assay, means ± SD; read-out: GC50 (the source's name)", "text": "(§1) Compounds12, 13 and 30 were selected for further cell activity assessments based on the enzymatic activity assessment results. molm-13 and MV4-11(acute myeloid lineage leukaemia cells), MGC-803 (gastric cancer cell), MDA-MB-231(breast cancer cell), A375 (melanoma cell), A549 (lung cancer cell), HCT-116, SW-480 and HT-29 (colorectal cancer cells) were selected to evaluate antitumor activity in vitro, GES-1 (gastric mucosal epithelial cell) was selected to evaluate toxicity in vitro.\n(§2) CO2 atmosphere incubator for 24 h. Then, medium with compound at the concentrations of 100, 20, 4, 0.8, 0.016 μM was added into each well for another 48 h and incubated with CCK-8 (10 μL) for 2 h at 37 °C. The absorbance value at 450 nm was measured by the microplate reader (PerkinElmer Envision). […]"}, "GES-1": {"system": "GES-1", "assay": "In vitro toxicity CCK-8 assay, GES-1", "type": "cell-based", "conditions": "Homo sapiens, GES1, GES-1 gastric mucosal epithelial cell, read-out: GC50 (the source's name)", "text": "as §1, §2"}, "molm-13": {"system": "molm-13", "assay": "Antiproliferative CCK-8 assay, molm-13", "type": "cell-based", "conditions": "Homo sapiens; molm-13, CCK-8 assay, means ± SD; read-out: GC50 (the source's name)", "text": "as §1, §2"}, "[1]": {"assay": "In vivo pharmacokinetic evaluation", "description": "Pharmacokinetic data is an important parameter for small molecule drugs. Here, the pharmacokinetic data of compound 12 was performed. […] Based on the above data analysis, we believed it is possible that compound 12 could be used as an oral medication (Figure 7)."}, "CDK8": {"molecular_target": "CDK8 (Homo sapiens, UniProt P49336)", "sequence (P49336 whole entry)": "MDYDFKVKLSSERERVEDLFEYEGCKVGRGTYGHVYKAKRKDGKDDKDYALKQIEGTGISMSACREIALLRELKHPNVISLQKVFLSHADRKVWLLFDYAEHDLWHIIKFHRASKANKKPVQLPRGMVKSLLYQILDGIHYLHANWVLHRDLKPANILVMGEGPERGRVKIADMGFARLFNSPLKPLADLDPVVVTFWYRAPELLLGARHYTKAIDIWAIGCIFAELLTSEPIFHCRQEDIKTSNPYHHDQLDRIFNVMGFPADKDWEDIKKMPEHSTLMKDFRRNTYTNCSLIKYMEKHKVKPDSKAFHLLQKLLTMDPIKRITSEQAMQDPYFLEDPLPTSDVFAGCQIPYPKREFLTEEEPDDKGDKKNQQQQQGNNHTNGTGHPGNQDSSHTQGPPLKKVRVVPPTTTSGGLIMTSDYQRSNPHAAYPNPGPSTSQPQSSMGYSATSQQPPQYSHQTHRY", "sequence (P24863 whole entry partner)": "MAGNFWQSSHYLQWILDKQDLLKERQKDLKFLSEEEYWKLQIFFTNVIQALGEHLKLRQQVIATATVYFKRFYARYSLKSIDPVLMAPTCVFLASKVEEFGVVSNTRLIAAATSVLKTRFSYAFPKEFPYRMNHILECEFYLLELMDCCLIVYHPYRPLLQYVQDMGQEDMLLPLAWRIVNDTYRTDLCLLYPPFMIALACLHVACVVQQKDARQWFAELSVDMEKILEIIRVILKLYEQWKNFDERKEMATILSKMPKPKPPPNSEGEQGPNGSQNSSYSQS", "assay": "CDK8 enzyme activity assay (ADP-Glo Kinase Assay)", "type": "biochemical", "conditions": "means ± SD", "description": "Some of them with high inhibition rates were further measured for their IC50 values. Compound SEL-120 34 A was selected as a positive control. [table] [table] page 14: CO2 atmosphere incubator for 24 h. Then, medium with compound at the concentrations of 100, 20, 4, 0.8, 0.016 μM was added into each well for another 48 h and incubated with CCK-8 (10 μL) for 2 h at 37 °C. The absorbance value at 450 nm was measured by the microplate reader (PerkinElmer Envision). 1.4 Kinase Assay The kinase inhibition was detected by ADP-Glo™ Kinase Assay (Promega) using a black 384-well plate. The active CDK8 kinase was diluted in mixture (5 ng enzyme, 0.5 μg substrate, 50 μM DTT, 1 μL reaction buffer and added ddH2O to 3 μL each well) and the final ATP concentrations of was 50 μM. After incubation at room temperature, ADP-Glo™ solution and kinase detection reagent was added. The data was collected by the microplate reader. 1.5 Cellular thermal shift assay HCT-116 cells were cultured in cell culture dishes and treated with 5 μM compound 12 for 4 h. HCT-116 cells were collected, washed by PBS and cell suspensions were divided into 12 PCR tubes equally. Then,11 tubes were heated at 37, […] After that, cells were broken by ultr asonic treatment and centrifuged at 12000 rpm for 20 min. The supernatant was analyzed by western blot. 1.6 Biotin-pulldown assay After co-treated with 2 μM biotinylated compound and compound 12 for 12 h, HCT-116 cells were lysed with NP-40 containing PMSF and centrifuged at 14000 r for 30 min at 4 °C. Then, 40 μL supernatant was used as the input by adding 10 μL 5×SDS loading buffer, and the remains were mixed with Streptavidin Agarose (Novex, Carlsbad, CA, USA). After 6 h incuba tion at 4 °C, the beads were washed three times using lysis buffer and resuspended in 2× SDS loading buffer. HEK -293T cells overexpressed flag -tagged CDK8 were treated using above method. The samples were analyzed by western blot."}, "CYP 2C19": {"molecular_target": "CYP 2C19 (Homo sapiens, UniProt P33261)", "sequence (P33261 whole entry)": "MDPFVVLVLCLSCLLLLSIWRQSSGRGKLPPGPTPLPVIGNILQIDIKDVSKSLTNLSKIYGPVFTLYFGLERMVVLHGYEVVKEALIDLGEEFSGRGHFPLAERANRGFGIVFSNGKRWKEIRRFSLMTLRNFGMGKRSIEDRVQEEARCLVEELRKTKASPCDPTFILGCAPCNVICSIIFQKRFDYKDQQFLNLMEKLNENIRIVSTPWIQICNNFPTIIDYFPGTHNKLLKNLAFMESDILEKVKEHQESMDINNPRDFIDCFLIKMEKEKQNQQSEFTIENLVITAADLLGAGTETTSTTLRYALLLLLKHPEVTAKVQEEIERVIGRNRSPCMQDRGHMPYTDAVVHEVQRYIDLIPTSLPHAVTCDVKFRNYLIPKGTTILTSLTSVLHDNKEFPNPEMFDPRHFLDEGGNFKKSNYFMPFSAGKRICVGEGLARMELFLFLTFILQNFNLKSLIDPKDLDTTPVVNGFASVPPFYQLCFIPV", "assay": "CYP inhibition activity, 2C19", "type": "in vitro ADME", "text": "Table 7. CYP inhibition activity. | column: IC50 (μM) / 2C19"}, "SW480": {"system": "SW480", "assay": "Antiproliferative CCK-8 assay, SW480", "type": "cell-based", "conditions": "Homo sapiens; SW480, CCK-8 assay, means ± SD; read-out: GC50 (the source's name)", "text": "as §1, §2"}, "Caco-2": {"system": "Caco-2", "assay": "Caco-2 permeability determination", "type": "in vitro ADME", "conditions": "Caco-2"}, "[2]": {"assay": "Caco-2 permeability determination", "type": "in vitro ADME", "conditions": "human"}, "[3]": {"conditions": "blood, iv, 2 mg/kg, 2 mg/kg (iv)"}, "[4]": {"conditions": "blood, po, 10 mg/kg, 10 mg/kg (po)"}}, "note": "Where two headings read alike, the source gives them in different places.", "data": [{"smiles": "NC(=O)c1cccc(-c2cnc3[nH]cc(-c4ccoc4)c3c2)c1", "note": "[Compound 12, 3-(3-(furan-3-yl)-1H-pyrrolo[2,3-b]pyridin-5-yl)benzamide]", "values": [{"measurement": "IC50", "setting": "A549", "value": "15.5 ± 2.78", "unit": "µM"}, {"measurement": "IC50", "setting": "GES-1", "value": "25.7 ± 4.97", "unit": "µM"}, {"measurement": "IC50", "setting": "molm-13", "value": "0.02 ± 0.01", "unit": "µM"}, {"measurement": "AUC 0-∞", "setting": "[1]; 2 mg/kg (iv)", "value": 829.75, "unit": "ng·h/mL"}, {"measurement": "Cmax", "setting": "[1]; 2 mg/kg (iv)", "value": 647.79, "unit": "ng/mL"}, {"measurement": "AUC 0-∞", "setting": "[1]; 10 mg/kg (po)", "value": 1611.67, "unit": "ng·h/mL"}, {"measurement": "CL", "setting": "[1]; 10 mg/kg (po)", "value": 104, "unit": "mL/min/kg"}, {"measurement": "Cmax", "setting": "[1]; 10 mg/kg (po)", "value": 821.82, "unit": "ng/mL"}, {"measurement": "AUC(0-inf)", "setting": "[1]; [3]", "value": 830, "unit": "ng·h/mL"}, {"measurement": "half-life", "setting": "[1]; [3]", "value": "~1.12", "unit": "h"}, {"measurement": "Cmax", "setting": "[1]; blood, iv, 2 mg/kg, 2 mg/kg (iv), read-out: Cmax", "value": 648, "unit": "ng/mL"}, {"measurement": "AUC(0-inf)", "setting": "[1]; [4]", "value": 1610, "unit": "ng·h/mL"}, {"measurement": "half-life", "setting": "[1]; [4]", "value": 0.95, "unit": "h"}, {"measurement": "Cmax", "setting": "[1]; blood, po, 10 mg/kg, 10 mg/kg (po), read-out: Cmax", "value": 822, "unit": "ng/mL"}, {"measurement": "MRT", "setting": "[1]; blood, 2 mg/kg (iv)", "value": 1.64, "unit": "h"}, {"measurement": "Tmax", "setting": "[1]; blood, 2 mg/kg (iv)", "value": 0.33, "unit": "h"}, {"measurement": "clearance", "setting": "[1]; blood, 2 mg/kg (iv)", "value": 40.8, "unit": "mL/min/kg"}, {"measurement": "MRT", "setting": "[1]; blood, 10 mg/kg (po)", "value": 2.24, "unit": "h"}, {"measurement": "Tmax", "setting": "[1]; blood, 10 mg/kg (po)", "value": 0.88, "unit": "h"}, {"measurement": "bioavailability", "setting": "[1]; blood, 10 mg/kg (po) vs 2 mg/kg (iv)", "value": 38.8, "unit": "%"}, {"measurement": "inhibition at 0.2 µM", "setting": "CDK8; CDK8, 200 nM, two experiments, read-out: Inhibition rate @ 200 nM (%)", "value": "80.9 ± 3.5", "unit": "%"}, {"measurement": "IC50", "setting": "CDK8; three experiments", "value": "0.0392 ± 0.0063", "unit": "µM"}, {"measurement": "IC50", "setting": "CYP 2C19", "value": "> 50", "unit": "µM"}, {"measurement": "IC50", "setting": "SW480", "value": "6.05 ± 2.26", "unit": "µM"}, {"measurement": "Permeability (in words)", "setting": "Caco-2", "value": "high permeability"}, {"measurement": "efflux ratio", "setting": "[2]; Caco-2", "value": 1.3}, {"measurement": "recovery", "setting": "[2]; Caco-2, Caco-2, A→B, read-out: Recovery A→B", "value": 107, "unit": "%"}, {"measurement": "recovery", "setting": "[2]; Caco-2, Caco-2, B→A, read-out: Recovery B→A", "value": 108, "unit": "%"}, {"measurement": "Papp A→B", "setting": "[2]; Caco-2, A→B", "value": 27, "unit": "×10⁻⁶ cm/s"}, {"measurement": "Papp B→A", "setting": "[2]; Caco-2, B→A", "value": 35.1, "unit": "×10⁻⁶ cm/s"}]}]}
